Assay results as given in the NIST ThermoML archive (doi:10.1016/j.tca.2019.02.008).
± gives the expanded uncertainty stated by the source.

Tests used:
[1] = for vapor or sublimation pressure: Transpiration method; for Triple point temperature: DSC
[2] = Molar enthalpy of transition or fusion; conditions: DSC

Br.CN [methylammonium bromide]
vapor or sublimation pressure [kPa], [1]
Conditions | 433 K | 444 K | 454 K | 463 K | 468 K | 473 K | 488 K | 493 K | 498 K | 503 K
Crystal 1 | – | – | – | – | – | – | 0.1234 ± 0.013 | 0.1563 ± 0.017 | 0.1897 ± 0.02 | 0.2394 ± 0.025
Crystal 2 | 0.0057 ± 0.0006 | 0.0104 ± 0.0011 | 0.0202 ± 0.0022 | 0.0348 ± 0.0037 | 0.0413 ± 0.0044 | 0.0576 ± 0.0061 | – | – | – | –

Conditions | Molar enthalpy of transition or fusion, Crystal 2 [kcal/mol] | Molar enthalpy of transition or fusion, Crystal 3 [kcal/mol] | Triple point temperature, Crystal 1 [K] | Triple point temperature, Crystal 2 [K] | Triple point temperature, Crystal 3 [K]
[1] | – | – | 520.5 ± 1 | 480.8 ± 1.1 | 392.1 ± 0.9
[2] | 0.868 ± 0.0645 | 0.351 ± 0.0335 | – | – | –
